# Source: US10669268B2, “Bicyclic derivatives” (Hoffmann-La Roche Inc., priority 2012, dated 2020)
# Biological target: ATX (human His-tagged) (Homo sapiens (Human), UniProt Q13822)
# Assay: Human ATX enzyme inhibition assay (fluorescence quenching, MR121 substrate)
# Type: biochemical
# Conditions: 30 nM ATX, 1 μM MR121 substrate, 30° C., pH 8.0
# In short: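 Fluorescence-quenching assay using MR121 substrate at 1 μM final, incubated 15 min at 30 °C. Buffer was 50 mM Tris-HCl pH 8.0 with 140 mM NaCl, 5 mM KCl, 1 mM CaCl2, 1 mM MgCl2 and 0.01% Triton X-100.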
row,SMILES,IC50 [nM]
1,"O=C(COc1ccc(OC(F)(F)F)cc1Br)N1C[C@@H]2CN(C(=O)c3ccc4[nH]nnc4c3)C[C@H]2C1 [Example 19.01, 1-[(3aS,6aS)-5-(1H-benzotriazole-5-carbonyl)-hexahydro-pyrrolo[3,4-c]pyrrol-2-yl]-2-(2-bromo-4-trifluoromethoxy-phenoxy)-ethanone]",12
2,O=C(/C=C/c1ccncc1)N1CC[C@@H]2CN(C(=O)c3ccc4[nH]nnc4c3)C[C@@H]2CC1 [Example 15.28],4420
3,"O=C(OCc1cc(Cl)cc(Cl)c1)N1CC[C@@H]2CN(C(=O)c3ccc4[nH]c(=O)oc4c3)C[C@H]2C1 (relative stereo) [Example 2, trans-3,5-Dichlorobenzyl 2-(2-oxo-2,3-dihydrobenzo[d]oxazole-6-carbonyl)hexahydro-1H-pyrrolo[3,4-c]pyridine-5(6H)-carboxylate]",10

# More lines, now with the values ahead:
row,IC50 [nM],SMILES
1,10,"CC(C)c1cc(C#N)ccc1COC(=O)N1C[C@@H]2CN(C(=O)c3ccc4[nH]nnc4c3)C[C@H]2C1 [Example 4.52, (3aS,6aS)-5-(1H-benzotriazole-5-carbonyl)-hexahydro-pyrrolo[3,4-c]pyrrole-2-carboxylic acid 4-cyano-2-isopropyl-benzyl ester]"
2,5,"CC(C)(C)c1cc(Br)ccc1OCC(=O)N1C[C@@H]2CN(C(=O)c3ccc4[nH]nnc4c3)C[C@H]2C1 [Example 19.30, 1-[(3aS,6aS)-5-(1H-benzotriazole-5-carbonyl)-1,3,3a,4,6,6a-hexahydropyrrolo[3,4-c]pyrrol-2-yl]-2-(4-bromo-2-tert-butylphenoxy)ethanone]"
3,9,"O=C(OCc1ccc(OC(F)F)cc1)N1C[C@@H]2CN(C(=O)c3ccc4[nH]nnc4c3)C[C@H]2C1 [Example 4.41, (3aS,6aS)-5-(1H-benzotriazole-5-carbonyl)-hexahydro-pyrrolo[3,4-c]pyrrole-2-carboxylic acid 4-difluoromethoxy-benzyl ester]"
